The IC50 is the midpoint of a concentration-inhibition curve. A low value points to higher potency. Usually melting point stands for the temperature of the solid-liquid transition.

For one data set, the target named is T1, HCMV polymerase (Human cytomegalovirus, UniProt P08546).
T1 construct: made in house; host or cells: recombinant baculovirus-infected SF-9 cells
Briefly: HCMV polymerase scintillation proximity assay (modified version). Particulars: for IC50: modified SPA assay, compounds diluted in 100% DMSO, 4.5 mM DTT. It counts as biochemical. The procedure:
(§1) The HCMV polymerase assay is performed using a scintillation proximity assay (SPA) as described in several references, such as N. D. Cook, et al., Pharmaceutical Manufacturing International, pages 49-53 (1992); K. Takeuchi, Laboratory Practice, September issue (1992); U.S. Pat. No. 4,568,649 (1986); which are incorporated by reference herein. Reactions are performed in 96-well plates. The assay is conducted in 100 μl volume with 5.4 mM HEPES (pH 7.5), 11.7 mM KCl, 4.5 mM MgCl2, 0.36 mg/ml BSA, and 90 nM ^3H-dTTP. Assays are run with and without CHAPS, (3-[(3-Cholamidopropyl)-dimethylammonio]-1-propane-sulfonate) at a final concentration of 2 mM. HCMV polymerase is diluted in enzyme dilution buffer containing 50% glycerol, 250 mM NaCl, 10 mM HEPES (pH 7.5), 100 μg/ml BSA, and 0.01% sodium azide. The HCMV polymerase, which is expressed in recombinant baculovirus-infected SF-9 cells and purified according to literature procedures, is added at 10% (or 10 μl) of the final reaction volume, i.e., 100 μl. Compounds are diluted in 50% DMSO and 10 μl are added to each well. Control wells contain an equivalent concentration of DMSO. Unless noted otherwise, reactions are initiated via the addition of 6 nM biotinylated poly(dA)-oligo(dT) template/primer to reaction mixtures containing the enzyme, substrate, and compounds of interest. Plates are incubated in a 25° C. or 37° C. H2O bath and terminated via the addition of 40 μl/reaction of 0.5 M EDTA (pH 8) per well. Reactions are terminated within the time-frame during which substrate incorporation is linear and varied depending upon the enzyme and conditions used, i.e., 30 min. for HCMV polymerase. Ten μl of streptavidin-SPA beads (20 mg/ml in PBS/10% glycerol) are added following termination of the reaction. Plates are incubated 10 min. at 37° C., then equilibrated to room temperature, and counted on a Packard Topcount. Linear regressions are performed and IC50's are calculated using computer software.
(§2) A modified version of the above HCMV polymerase assay is performed as described above, but with the following changes: Compounds are diluted in 100% DMSO until final dilution into assay buffer. In the previous assay, compounds are diluted in 50% DMSO. 4.5 mM dithiothreitol (DTT) is added to the polymerase buffer.

The target of the next data set is VZV polymerase (Varicella-zoster virus, UniProt P09252). Briefly: VZV polymerase assay (Table 1). It counts as biochemical. The procedure:
[The source words this procedure for another target and says it was used here with some conditions changed.] as §1, §2

Another data set addresses HSV polymerase (Human herpesvirus 1, UniProt P04293). Briefly: HSV polymerase assay (Table 1). It counts as biochemical.

Structures can show the parent of a compound that is named as a salt.

Sequence of VZV polymerase (P09252 whole entry): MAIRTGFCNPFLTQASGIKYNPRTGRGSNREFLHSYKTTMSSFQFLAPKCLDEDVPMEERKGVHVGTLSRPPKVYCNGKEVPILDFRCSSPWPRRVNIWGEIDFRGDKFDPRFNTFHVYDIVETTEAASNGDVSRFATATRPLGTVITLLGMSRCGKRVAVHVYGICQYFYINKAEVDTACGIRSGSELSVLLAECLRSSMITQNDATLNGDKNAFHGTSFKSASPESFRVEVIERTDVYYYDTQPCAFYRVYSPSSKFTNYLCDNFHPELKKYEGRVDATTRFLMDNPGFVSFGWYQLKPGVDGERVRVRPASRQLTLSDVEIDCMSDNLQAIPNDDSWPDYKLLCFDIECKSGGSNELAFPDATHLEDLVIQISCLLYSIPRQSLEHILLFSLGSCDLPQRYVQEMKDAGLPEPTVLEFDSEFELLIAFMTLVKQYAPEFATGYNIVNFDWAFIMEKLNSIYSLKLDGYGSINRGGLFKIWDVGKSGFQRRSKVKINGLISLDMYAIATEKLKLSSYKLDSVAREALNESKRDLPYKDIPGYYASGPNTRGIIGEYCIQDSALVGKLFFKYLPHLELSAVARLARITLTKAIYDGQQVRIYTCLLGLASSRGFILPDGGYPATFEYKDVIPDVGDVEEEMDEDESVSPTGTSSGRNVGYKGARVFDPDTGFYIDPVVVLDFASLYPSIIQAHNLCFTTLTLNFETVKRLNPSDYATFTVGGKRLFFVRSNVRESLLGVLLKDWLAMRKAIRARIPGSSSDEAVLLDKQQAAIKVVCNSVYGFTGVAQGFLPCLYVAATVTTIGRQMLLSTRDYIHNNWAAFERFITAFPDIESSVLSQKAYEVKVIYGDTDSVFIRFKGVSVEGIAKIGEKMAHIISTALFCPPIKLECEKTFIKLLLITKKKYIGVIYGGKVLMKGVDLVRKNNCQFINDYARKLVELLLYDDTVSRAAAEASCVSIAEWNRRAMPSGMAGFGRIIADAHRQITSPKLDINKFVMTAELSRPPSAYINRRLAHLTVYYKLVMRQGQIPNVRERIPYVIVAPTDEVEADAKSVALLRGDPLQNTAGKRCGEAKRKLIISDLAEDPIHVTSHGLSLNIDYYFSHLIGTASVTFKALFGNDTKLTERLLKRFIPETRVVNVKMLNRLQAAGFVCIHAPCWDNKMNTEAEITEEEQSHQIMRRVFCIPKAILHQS
Sequence of HSV polymerase (P04293 whole entry): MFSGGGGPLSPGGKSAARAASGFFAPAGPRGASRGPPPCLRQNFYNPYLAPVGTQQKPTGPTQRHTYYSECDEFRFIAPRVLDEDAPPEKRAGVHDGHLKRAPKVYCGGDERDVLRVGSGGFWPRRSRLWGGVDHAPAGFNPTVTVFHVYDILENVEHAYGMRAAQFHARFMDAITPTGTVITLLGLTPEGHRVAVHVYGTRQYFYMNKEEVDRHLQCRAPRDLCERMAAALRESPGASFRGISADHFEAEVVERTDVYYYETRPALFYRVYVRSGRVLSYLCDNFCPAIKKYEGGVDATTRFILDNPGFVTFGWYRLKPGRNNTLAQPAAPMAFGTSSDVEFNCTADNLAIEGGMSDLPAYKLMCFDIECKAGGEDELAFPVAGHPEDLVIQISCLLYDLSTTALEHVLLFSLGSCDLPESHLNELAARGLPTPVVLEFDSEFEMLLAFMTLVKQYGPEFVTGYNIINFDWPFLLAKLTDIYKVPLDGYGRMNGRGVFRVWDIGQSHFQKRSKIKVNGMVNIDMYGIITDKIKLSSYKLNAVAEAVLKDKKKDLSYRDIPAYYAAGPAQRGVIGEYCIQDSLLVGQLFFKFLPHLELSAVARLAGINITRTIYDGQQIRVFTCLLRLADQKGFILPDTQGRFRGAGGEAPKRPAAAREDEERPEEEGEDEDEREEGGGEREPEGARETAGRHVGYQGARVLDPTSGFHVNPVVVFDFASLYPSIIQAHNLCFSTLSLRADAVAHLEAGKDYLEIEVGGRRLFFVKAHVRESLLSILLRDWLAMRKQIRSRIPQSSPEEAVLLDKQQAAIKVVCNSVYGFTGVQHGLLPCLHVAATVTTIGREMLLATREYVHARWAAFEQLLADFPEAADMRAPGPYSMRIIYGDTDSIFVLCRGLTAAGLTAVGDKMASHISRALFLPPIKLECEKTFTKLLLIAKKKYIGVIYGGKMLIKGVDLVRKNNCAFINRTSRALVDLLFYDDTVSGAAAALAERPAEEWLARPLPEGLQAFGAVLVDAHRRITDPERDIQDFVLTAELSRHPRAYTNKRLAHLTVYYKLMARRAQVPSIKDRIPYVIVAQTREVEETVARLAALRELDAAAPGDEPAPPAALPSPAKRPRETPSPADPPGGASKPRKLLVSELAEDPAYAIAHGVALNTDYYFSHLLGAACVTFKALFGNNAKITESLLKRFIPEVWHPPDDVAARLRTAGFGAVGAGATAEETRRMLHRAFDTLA
T1 sequence (P08546 whole entry): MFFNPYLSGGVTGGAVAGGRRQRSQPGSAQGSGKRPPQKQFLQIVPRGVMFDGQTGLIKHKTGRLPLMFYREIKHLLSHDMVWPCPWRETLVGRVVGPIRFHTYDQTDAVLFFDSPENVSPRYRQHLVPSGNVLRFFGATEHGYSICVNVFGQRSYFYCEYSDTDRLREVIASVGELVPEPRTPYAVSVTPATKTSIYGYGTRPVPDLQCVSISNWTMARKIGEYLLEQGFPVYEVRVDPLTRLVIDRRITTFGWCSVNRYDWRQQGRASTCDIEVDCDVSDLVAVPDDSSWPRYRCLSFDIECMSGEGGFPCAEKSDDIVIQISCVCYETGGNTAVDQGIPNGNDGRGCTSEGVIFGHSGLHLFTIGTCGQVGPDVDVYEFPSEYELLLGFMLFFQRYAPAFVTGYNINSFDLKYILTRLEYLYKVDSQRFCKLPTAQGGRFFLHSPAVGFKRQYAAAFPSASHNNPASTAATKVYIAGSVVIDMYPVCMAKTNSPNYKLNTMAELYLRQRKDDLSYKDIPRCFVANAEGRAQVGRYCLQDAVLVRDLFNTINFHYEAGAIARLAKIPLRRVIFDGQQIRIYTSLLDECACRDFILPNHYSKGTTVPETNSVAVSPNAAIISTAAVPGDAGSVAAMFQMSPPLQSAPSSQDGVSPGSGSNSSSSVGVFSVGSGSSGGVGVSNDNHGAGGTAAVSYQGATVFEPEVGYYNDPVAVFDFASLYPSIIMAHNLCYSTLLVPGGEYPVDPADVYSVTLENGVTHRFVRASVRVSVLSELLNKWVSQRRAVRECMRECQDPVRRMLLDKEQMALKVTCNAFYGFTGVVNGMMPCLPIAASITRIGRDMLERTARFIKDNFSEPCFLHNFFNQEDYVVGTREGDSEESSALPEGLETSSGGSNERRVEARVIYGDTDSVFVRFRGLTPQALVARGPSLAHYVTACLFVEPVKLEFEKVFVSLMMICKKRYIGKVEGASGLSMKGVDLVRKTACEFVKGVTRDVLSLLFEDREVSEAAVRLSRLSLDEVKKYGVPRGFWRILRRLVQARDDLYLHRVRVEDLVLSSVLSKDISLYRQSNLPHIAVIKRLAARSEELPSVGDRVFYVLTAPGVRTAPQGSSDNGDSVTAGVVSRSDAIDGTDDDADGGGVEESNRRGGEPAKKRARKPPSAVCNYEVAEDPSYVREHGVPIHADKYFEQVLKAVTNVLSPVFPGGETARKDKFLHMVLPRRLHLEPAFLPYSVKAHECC

In turn, `O=C(NCc1ccc(Cl)cc1)c1cn2c3c(cc(CN4CCOCC4)cc3c1=O)OCCC2` [Example 1, N-(4-Chlorobenzyl)-10-(4-morpholinylmethyl)-8-oxo-3,4-dihydro-2H,8H-[1,4]oxazepino [2,3,4-ij]quinoline-7-carboxamide] registered a melting point of 195 to 197 °C. Moreover, the IC50 against HCMV polymerase is 650 nM.
On to `O=C(NCc1ccc(Cl)cc1)c1cn2c(=O)[nH]c3cc(CN4CCOCC4)cc(c1=O)c32` [Example 2, N-(4-Chlorobenzyl)-8-(4-morpholinylmethyl)-2,6-dioxo-1,2-dihydro-6H-imidazo[4,5,1-ij]quinoline-5-carboxamide], for which the results for the IC50 at VZV polymerase, at HCMV polymerase and against HSV polymerase were 520 nM, 770 nM and 740 nM, respectively.
Take `O=C1Cn2cc(C(=O)NCc3ccc(Cl)cc3)c(=O)c3cc(CN4CCOCC4)cc(c32)N1` [Example 3, N-(4-Chlorobenzyl)-9-(4-morpholinylmethyl)-2,7-dioxo-2,3-dihydro-1H,7H-pyrido[1,2,3-de]quinoxaline-6-carboxamide]: the IC50 at VZV polymerase is 60 nM; at HCMV polymerase, 140 nM; on HSV polymerase, less than 510 nM.
As for `O=C(NCc1ccc(Cl)cc1)c1cn2c3c(cc(CN4CCOCC4)cc3c1=O)N=C(NCc1ccc(Cl)cc1)C2` [Example 4, N-(4-Chlorobenzyl)-2-[(4-chlorobenzyl)amino]-9-(4-morpholinylmethyl)-7-oxo-3H,7H-pyrido[1,2,3-de]quinoxaline-6-carboxamide], the IC50 against VZV polymerase was 180 nM; against HCMV polymerase, 160 nM.
Regarding `O=C(NCc1ccc(Cl)cc1)c1cn2c3c(cc(C#CCO)cc3c1=O)CC2CO` (stereo not shown) [Example 5, N-(4-Chlorobenzyl)-2-(hydroxymethyl)-8-(3-hydroxy-1-propynyl)-6-oxo-1,2-dihydro-6H-pyrrolo[3,2,1-ij]quinoline-5-carboxamide], the melting point lay within 224 to 225 °C. The compound also yielded an IC50 on HCMV polymerase of 3200 nM.
For `CC1(C)Cc2cc(C#CCO)cc3c(=O)c(C(=O)NCc4ccc(Cl)cc4)cn1c23` [Example 6, N-(4-Chlorobenzyl)-8-(3-hydroxyprop-1-ynyl)-2,2-dimethyl-6-oxo-1,2-dihydro-6H-pyrrolo[3,2,1-ij]quinoline-5-carboxamide], the melting point is 228 °C (dec.). Besides, the IC50 on HCMV polymerase worked out at 4000 nM.
Taken in the same sequence, the figures for `O=C(NCc1ccc(Cl)cc1)c1cc2c3c(cc(CN4CCOCC4)cn3c1=O)CCC2` [Example 7, N-(4-Chlorobenzyl)-6-(morpholin-4-ylmethyl)-3-oxo-9,10dihydro-3H,8H-pyrido[3,2,1-ij]quinoline-2-carboxamide] were 200 to 201 °C and 4000 nM.
For the compound `CC1C(=O)Nc2cc(CN3CCOCC3)cc3c(=O)c(C(=O)NCc4ccc(Cl)cc4)cn1c23` (stereo not shown) [Example 8, N-(4-Chlorobenzyl)-3-methyl-9-(4-morpholinylmethyl)-2,7-dioxo-2,3-dihydro-1H,7H-pyrido[1,2,3-de]quinoxaline-6-carboxamide hydrobromide], the results for the IC50 against VZV polymerase, on HCMV polymerase and on HSV polymerase were 90 nM, 430 nM and 200 nM, respectively.
Take `O=C1CCn2cc(C(=O)NCc3ccc(Cl)cc3)c(=O)c3cc(CN4CCOCC4)cc(c32)N1` [Example 9, N-(4-Chlorobenzyl)-10-(4-morpholinylmethyl)-2,8-dioxo-1,2,3,4-tetrahydro-8H-[1,4]diazepino[3,2,1-ij]quinoline-7-carboxamide]: the IC50 against VZV polymerase was 170 nM; at HCMV polymerase, 670 nM; on HSV polymerase it was 280 nM.
In the case of `O=C(NCc1ccc(Cl)cc1)c1cn2c3c(cc(CN4CCOCC4)cc3c1=O)N=C(NCc1ccccc1)C2` [Example 10, 2-(Benzylamino)-N-(4-chlorobenzyl)-9-(4-morpholinylmethyl)-7-oxo-3H,7H-pyrido[1,2,3-de]quinoxaline-6-carboxamide], the melting point is 235 to 240 °C. The same compound came in with an IC50 against VZV polymerase of 120 nM. Moreover, at HCMV polymerase, the IC50 turned out to be 310 nM. In addition, the IC50 against HSV polymerase was determined as 310 nM.
`CN1C(=O)Cn2cc(C(=O)NCc3ccc(Cl)cc3)c(=O)c3cc(C#CCO)cc1c32` [Example 11, N-(4-Chlorobenzyl)-9-(3-hydroxy-1-propynyl)-1-methyl-2,7-dioxo-2,3-dihydro-1H,7H-pyrido[1,2,3-de]quinoxaline-6-carboxamide] returned an IC50 on HCMV polymerase of 1160 nM.
Same read-out and setting: the same measure for `O=C(NCc1ccc(Cl)cc1)c1cn2c3c(cc(CN4CCOCC4)cc3c1=O)CN(Cc1ccccc1)C2` [Example 12, 2-Benzyl-N-(4-chlorobenzyl)-9-(4-morpholinylmethyl)-7-oxo-2,3-dihydro-1H,7H-pyrido[3,2,1-ij]quinazoline-6-carboxamide]: 1670 nM.
Take `O=C(NCc1ccc(Cl)cc1)c1cn2c3c(cc(CN4CCOCC4)cc3c1=O)CN(Cc1ccccc1)C2=O` [Example 13, 2-Benzyl-N-(4-chlorobenzyl)-9-(4-morpholinylmethyl)-3,7-dioxo-2,3-dihydro-1H,7H-pyrido[3,2,1-ij]quinazoline-6-carboxamide]: the inhibition at 20 µM at HCMV polymerase (at 20 μM, read-out: Polymerase HCMV, percent inhibition at the given concentration) turned out to be 39%.
Regarding `O=C(NCc1ccc(Cl)cc1)c1cn2c3c(cc(CN4CCOCC4)cc3c1=O)CN(Cc1ccccc1)C(=O)C2` [Example 14, 2-Benzyl-N-(4-chlorobenzyl)-10-(4-morpholinylmethyl)-3,8-dioxo-1,2,3,4-tetrahydro-8H-[1,4]diazepino[6,7,1-ij]quinoline-7-carboxamide], at HCMV polymerase, the IC50 turned out to be 6000 nM.
As for `CN1COc2cc(C#CCO)cc3c(=O)c(C(=O)NCc4ccc(Cl)cc4)cn1c23` [Example 15, N-(4-Chlorobenzyl)-9-(3-hydroxyprop-1-ynyl)-3-methyl-7-oxo-2,3-dihydro-7H-[1,3,4]oxadiazino[6,5,4-ij]quinoline-6-carboxamide], the melting point is 231 to 233 °C. This compound gave an IC50 against HCMV polymerase of 4190 nM.
Taken in the same sequence, the figures for `CN1CCc2cc(C#CCO)cc3c(=O)c(C(=O)NCc4ccc(Cl)cc4)cn1c23` [Example 16, N-(4-Chlorobenzyl)-5-(3-hydroxyprop-1-ynyl)-1-methyl-7-oxo-2,3-dihydro-1H,7H-pyrido[3,2,1-ij]cinnoline-8-carboxamide] were 165 to 167 °C and 7950 nM.

Source of the values: patent US6624159B2, “Heterocycle carboxamides as antiviral agents” (Pharmacia & Upjohn Company, priority 2000, dated 2003).
